Measurements reported in patent publication US20240239840A1, “method for the treatment of pain and a medicinal product for administration during pain” (PVP LABS PTE.LTD., priority 2023, published 2024).
Square brackets hold non-standard residues; d marks the D form. Peptide text beside a SMILES is read from it.

Key:
[1] = system: other opioid receptors; assay: opioid receptor specificity of the tetrapeptide; type: binding
Source text: (§1) Two subtypes of μ receptors are recognized: activation of μ1 receptors causes pronounced analgesia, while activation of μ2-receptors leads to respiratory depression, cardiovascular system disturbances such as bradycardia, and suppression of intestinal motility. Therefore, high specificity of the tetrapeptide in question to μ1-opioid receptors ensures the absence of side effects that are typical of most opioid narcotic medications. This tetrapeptide interacts with peripheral and central receptors, although it mostly acts at the spinal level. After the tetrapeptide binds to μ1-receptors, G-protein complex is released, which inhibits the release of neurotransmitters by the cell by reducing the amount of cAMP produced, closing calcium channels and opening potassium channels, which, among other consequences, inhibits the transmission of pain signals in nociceptors. The tetrapeptide activates the antinociceptive system, thereby disrupting interneuronal transmission of pain signals at different levels of the CNS, and changes the intensity of pain perception by acting on the higher brain centres.

[2] = molecular target: δ-receptors (Homo sapiens, UniProt P41143); assay: opioid receptor specificity of the tetrapeptide; type: binding
Chain of δ-receptors (P41143 whole entry): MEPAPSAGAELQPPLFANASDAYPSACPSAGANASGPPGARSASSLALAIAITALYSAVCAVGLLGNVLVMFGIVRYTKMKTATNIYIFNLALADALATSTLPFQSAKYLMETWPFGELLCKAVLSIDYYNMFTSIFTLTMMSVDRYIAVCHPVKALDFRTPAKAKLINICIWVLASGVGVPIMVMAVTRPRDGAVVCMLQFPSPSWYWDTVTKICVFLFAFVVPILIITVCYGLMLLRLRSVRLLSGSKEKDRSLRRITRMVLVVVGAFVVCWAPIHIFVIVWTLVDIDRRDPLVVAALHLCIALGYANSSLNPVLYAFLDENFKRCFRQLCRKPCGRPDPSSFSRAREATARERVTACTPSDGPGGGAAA
Source text: as §1

[3] = molecular target: μ1-opioid receptor (Homo sapiens, UniProt P35372); assay: opioid receptor specificity of the tetrapeptide; type: binding
Chain of μ1-opioid receptor (P35372 whole entry): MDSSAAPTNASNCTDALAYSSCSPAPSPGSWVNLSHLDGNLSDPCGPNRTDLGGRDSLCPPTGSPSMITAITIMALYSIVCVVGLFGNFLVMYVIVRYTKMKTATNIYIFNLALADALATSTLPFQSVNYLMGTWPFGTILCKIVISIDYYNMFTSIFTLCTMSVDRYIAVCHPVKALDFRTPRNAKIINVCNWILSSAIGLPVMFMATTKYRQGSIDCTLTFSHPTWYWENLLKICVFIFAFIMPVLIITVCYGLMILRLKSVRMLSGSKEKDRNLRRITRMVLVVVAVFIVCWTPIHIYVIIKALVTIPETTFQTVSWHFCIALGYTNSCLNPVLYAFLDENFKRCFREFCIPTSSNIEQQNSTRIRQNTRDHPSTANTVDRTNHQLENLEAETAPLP
Source text: as §1

[4] = system: patients with early postoperative pain; assay: clinical trial of pain treatment in the early postoperative period, efficacy; type: in vivo, human
Experimental: (§2) Additional clinical trials focused of the treatment of pain in the early postoperative period after a variety of surgical interventions, including urological, gynaecological and other surgeries.
(§3) If NRS pain intensity score on day two was <4, only paracetamol was administered by IV injection as necessary, and the maximum daily dose was […]. […] Pain was usually brought under control within 1-2 days in the early postoperative period.

[5] = clinical trial of pain treatment in the early postoperative period, safety; type: in vivo, human; conditions: groups treated with Promedol
Experimental: as §2, §3

[6] = system: cancer patients with severe cancer pain; assay: phase II clinical trial, efficacy in cancer patients experiencing pain; type: in vivo, human
Experimental: (§4) Pain intensity was evaluated on a numeric rating scale (NRS) from 0 to 10. […] The patients' physical activity score on the Eastern Cooperative Oncology Group (ECOG) performance status scale was 0 to 3, i.e. they were active and were up and about for over 50% of waking hours (grade 2 on the ECOG scale) or were capable of only limited self-care and confined to bed or chair more than 50% of waking hours (grade 3 on the ECOG scale).
(§5) The study was carried out in two stages. The total duration of the trial for each patient was 20 days or less. […] The number of doses depended on pain intensity as evaluated on the NRS scale for each individual patient.
The primary efficacy endpoint was the rate of achieving a sufficient analgesic effect throughout the day.

[7] = phase II clinical trial, safety in cancer patients experiencing pain
Experimental: as §4, §5
Comments: 1. […] 2. SAE=serious adverse event.

[8] = system: patients with cancer pain; assay: phase III clinical trial, efficacy in patients with cancer pain; type: in vivo, human
Experimental: Primary efficacy evaluation was performed during the following visits: Visit 1 (day 1 of tetrapeptide treatment), Visit 2 (day 28±2 of tetrapeptide treatment), Visit 3 (day 56±2 of tetrapeptide treatment) and Visit 4 (day 86±2 of tetrapeptide treatment).
Analgesic treatment response maintenance rate by day 28.
Treatment response was considered maintained if all of the following conditions were met: • 1. […] Daily average pain intensity at the end of the 28-day treatment period remains at <50% of the intensity at the start of titration.

[9] = phase III clinical trial, safety in patients with cancer pain
[10] = Promedol 20 mg three times daily
[11] = Promedol 20 mg three times daily on day 1
[12] = investigator-evaluated, Visit 2

N=C(N)NCCC[C@@H](NC(=O)[C@@H](N)Cc1ccc(O)cc1)C(=O)N[C@@H](Cc1ccccc1)C(=O)NCC(N)=O [H-Tyr-D-Arg-Phe-Gly-NH2, Tyrosyl-D-arginyl-phenylalanyl-glycinamide] (H-Y[dR]FG-NH2)
interactions with the other receptors [1]: no interactions with the other receptors have been detected
interaction with δ-receptors weaker than with μ-opioid receptors [2]: 3 orders of magnitude
opioid receptor activity [3]: highly specific μ1-opioid receptor agonist

CCC(=O)OC1(c2ccccc2)CC(C)N(C)CC1C (centres unmarked) [Promedol]
daily average NRS pain intensity score [4, 10]: 2.16±0.66
mean change in pain intensity [4, 10]: 55.44±33.17%
proportion of patients with greater than 50% pain relief at 1 hour after the initial dose [4, 10]: 50%
patients requiring repeat dosing on day 2 who were dosed three times [4, 11]: 16.67%
patients requiring repeat dosing on day 2 who were dosed twice [4, 11]: 83.33%
daily average NRS pain intensity score ([4]; day 2, Promedol 20 mg three times daily): 1.41±1.92
patients with AEs [5]: 35%

CN1CC[C@]23c4c5ccc(O)c4O[C@H]2[C@@H](O)C=C[C@H]3[C@H]1C5 [morphine]
average stable daily dose ensuring adequate pain relief ([6]; baseline, all Taphalgin dose subgroups): 20.31 mg
average starting dose ([6]; before study, patients of the 2 mg Taphalgin subgroup): 18.33 mg
within-group trend of daily average NRS pain intensity scores ([6]; stage 2): flat
daily average NRS pain intensity score ([6]; stage 2, day of dosing 11): 0.12 ± 0.22
daily average NRS pain intensity score ([6]; stage 2, day of dosing 12): 0.30 ± 0.38
daily average NRS pain intensity score ([6]; stage 2, day of dosing 13): 0.24 ± 0.35
daily average NRS pain intensity score ([6]; stage 2, day of dosing 14): 0.24 ± 0.35
daily average NRS pain intensity score ([6]; stage 2, day of dosing 15): 0.28 ± 0.30
daily average NRS pain intensity score ([6]; stage 2, day of dosing 16): 0.17 ± 0.21
daily average NRS pain intensity score ([6]; stage 2, day of dosing 17): 0.17 ± 0.23
dyspnoea / difficulty breathing ([7]; human, in vivo): difficulty breathing was observed
Acute heart failure (SAE), % of the total number of AEs for the group ([7]; stage 2): (3.7) %
Anaemia, % of the total number of AEs for the group ([7]; stage 2): (3.7) %
Appetite lost, % of the total number of AEs for the group ([7]; stage 2): (7.4) %
Asthenia, % of the total number of AEs for the group ([7]; stage 2): (14.8) %
Constipation, % of the total number of AEs for the group ([7]; stage 2): (14.8) %
Cough, % of the total number of AEs for the group ([7]; stage 2): (3.7) %
Dizziness postural, % of the total number of AEs for the group ([7]; stage 2): (0) %
Dizziness, % of the total number of AEs for the group ([7]; stage 2): (3.7) %
Dry mouth, % of the total number of AEs for the group ([7]; stage 2): (3.7) %
Flatulence, % of the total number of AEs for the group ([7]; stage 2): (3.7) %
Insomnia, % of the total number of AEs for the group ([7]; stage 2): (3.7) %
Multiple organ dysfunction syndrome (SAE), % of the total number of AEs for the group ([7]; stage 2): (3.7) %
Nausea, % of the total number of AEs for the group ([7]; stage 2): (3.7) %
Peripheral oedema, % of the total number of AEs for the group ([7]; stage 2): (3.7) %
Pulmonary oedema (SAE), % of the total number of AEs for the group ([7]; stage 2): (3.7) %
Sedation, % of the total number of AEs for the group ([7]; stage 2): (7.4) %
Shortness of breath, % of the total number of AEs for the group ([7]; stage 2): (3.7) %
Total, % of the total number of AEs for the group ([7]; stage 2): (100) %
Vomiting, % of the total number of AEs for the group ([7]; stage 2): (3.7) %
incidence of AEs ([7]; stage 2, 16 patients per group): 50.0%
number of patients in whom AEs were reported ([7]; stage 2, 16 patients per group): 8
number of SAEs reported ([7]; stage 2, in 1 patient): 1
average SF-36 mental health score ([8]; Visit 0): 31.42±12.16
average SF-36 physical health score ([8]; Visit 0): 32.22±10.76
average SF-36 mental health score ([8]; Visit 2): 31.42±12.16
average SF-36 physical health score ([8]; Visit 2): 49.52±11.73
non-responders to therapy ([8]; by Visit 2): no non-responders
proportion of patients who required a dose increase ([8]; by Visit 2): 6.52%
proportion of patients with at least one episode of breakthrough pain ([8]; by Visit 2): 2.17%
daily average NRS pain intensity score (Mean±SD) ([8]; by group, at Visit 2): 0.28±0.30
proportion of patients with a “good response” to therapy [8, 12]: 67.39%
proportion of patients with a “satisfactory response” to therapy [8, 12]: 0.00%
proportion of patients with an “excellent response” to therapy [8, 12]: 32.61%
prevalence of patients with AEs ([9]; Period 1): 71.19%
total number of AEs reported ([9]; Period 1): 119
AEs mild ([9]; Period 1, % of cases): 65.55%
AEs moderate ([9]; Period 1, % of cases): 33.61%
AEs severe ([9]; Period 1, % of cases): 0.84%
causality between AEs and therapy: certain ([9]; Period 1, % of cases): 13.44%
causality between AEs and therapy: conditional ([9]; Period 1, % of cases): 0.84%
causality between AEs and therapy: possible ([9]; Period 1, % of cases): 38.66%
causality between AEs and therapy: probable ([9]; Period 1, % of cases): 29.41%
causality between AEs and therapy: unclassifiable ([9]; Period 1, % of cases): 0.84%
causality between AEs and therapy: unlikely ([9]; Period 1, % of cases): 11.76%
causality between AEs and therapy: unrelated ([9]; Period 1, % of cases): 5.04%
number of AEs with causality “certain”, “probable” or “possible” ([9]; both, human, in vivo, oral): 97
prevalence of patients with reported AEs ([9]; comprehensive within-group analysis (44/120 vs 43/59)): 72.88%
